Each structure is given as a SMILES string. Where two headings read alike, the source gives them in different places.

In assay [1] the target is T1, MT-2 receptor (Homo sapiens, UniProt P49286).
T1 construct: expressed in transfected cells; host or cells: CHP-K1 (Chinese hamster ovary) cells (so in the source)
T1 sequence (P49286 1-362): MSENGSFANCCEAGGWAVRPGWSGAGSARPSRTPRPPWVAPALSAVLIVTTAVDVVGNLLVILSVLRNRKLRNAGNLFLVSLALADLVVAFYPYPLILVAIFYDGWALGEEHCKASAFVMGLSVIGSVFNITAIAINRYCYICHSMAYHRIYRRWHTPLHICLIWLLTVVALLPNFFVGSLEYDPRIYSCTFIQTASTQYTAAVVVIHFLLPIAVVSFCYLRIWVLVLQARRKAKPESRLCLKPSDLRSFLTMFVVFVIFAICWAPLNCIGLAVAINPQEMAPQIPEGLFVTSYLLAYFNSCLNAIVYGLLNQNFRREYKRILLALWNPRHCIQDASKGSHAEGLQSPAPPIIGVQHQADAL
In words: 125I-melatonin binding in membranes of CHP-K1 cells, MT-2. Conditions: for inhibition at 10 µM: read-out: MT-2 receptor binding % inhibition by 10 μM. How it is done:
Aliquots of suspended membranes of human recombinant CHP-K1 (Chinese hamster ovary) cells stably expressing human melatonin-1 or melatonin-2 (MT-1 or MT-2) receptors or of hamster brain (MT-3) were incubated at 25° C. with 0.05 nM ^125I-melatonin in buffer (25 mM HEPES, pH 7.4, 5 mM MgCl2, 1 mM CaCl2, 0.5% BSA) or with 0.1 nM for MT-3 alone or in the presence of 1 nM, 10 nM, 0.1 μM, 1 μM and 10 μM of test substances N-[2-(5-methoxy-indol-3-yl)-ethyl]-commenamide, N-[2-(5-methoxy-indol-3-yl)-ethyl]-comanilamide, N-[2-(5-methoxy-indol-3-yl)-ethyl]-coumalylamide, N-[2-(5-methoxy-indol-3-yl)-ethyl]-2-methoxy-commenamide, N-[2-(5-methoxy-indol-3-yl)-ethyl]-chelidonamide, O-[2-(5-methoxy-indol-3-yl)-ethyl]-comenic ester, N-[2-(5-methoxy-indol-3-yl)-ethyl]-2-Pyrone-6-carboxamide and N-[2-(2-bromo-5-methoxy-indol-3-yl)-ethyl]-coumalylamide for 3 hours for MT-1, 4 hours for MT-2 and 30 min for MT-3. The binding reaction was terminated and the membranes were washed with 4 ml of ice-cold HEPES buffer by vacuum filtration. Membranes were then collected, and the filters containing the bound ^125I-melatonin were assayed for the amount of radioactivity in a […]. Non-specific binding was evaluated using a reaction with 1 μM 6-chloromelatonin (MT-1 and MT-2) or 30 μM melatonin (MT-3).

Assay [2] has as its target T2, 5-HT1A receptor (Homo sapiens, UniProt P08908).
T2 construct: expressed in transfected cells; host or cells: CHO-K1
T2 sequence (P08908 1-422): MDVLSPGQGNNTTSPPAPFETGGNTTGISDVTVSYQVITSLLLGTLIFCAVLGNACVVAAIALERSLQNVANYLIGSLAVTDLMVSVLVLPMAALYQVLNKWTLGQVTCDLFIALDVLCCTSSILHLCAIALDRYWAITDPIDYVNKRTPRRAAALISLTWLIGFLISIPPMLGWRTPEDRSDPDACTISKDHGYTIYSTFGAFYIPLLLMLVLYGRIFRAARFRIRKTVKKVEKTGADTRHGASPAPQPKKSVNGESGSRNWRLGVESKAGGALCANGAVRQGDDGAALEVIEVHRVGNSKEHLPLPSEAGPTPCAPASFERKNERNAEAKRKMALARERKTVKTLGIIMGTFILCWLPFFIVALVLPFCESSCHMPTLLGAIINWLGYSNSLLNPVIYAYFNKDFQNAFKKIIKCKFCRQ
In words: Serotonin receptor binding, [3H] 8-OH-DPAT, CHO-K1 membranes. How it is done:
Aliquots of suspended membranes of human recombinant CHO-K1 cells stably expressing human 5-HT1A, 5-HT2A, 5-HT1B, 5-HT2B, 5-HT2C, 5-HT4, 5-HT6 or 5-HT7 receptors were pre-incubated at 25° C. with 1.5 nM [^3H] 8-OH-DPAT (5-HT1A), 1.5 nM [^3H] Ketanserin (5-HT2A), 0.01 nM [^125I] Cyanopindolol (5-HT1B), 1 nM [^3H] Mesulergine (5-HT2c), 0.7 nM [^3H] GR-113808 (5-HT4) or at 37° C. 1.2 nM [^3H] LSD (5-HT2B, 5-HT6 and 5-HT7) in buffer (50 mM Tris-HCl, pH 7.7) alone or in the presence of 1 nM, 10 nM, 0.1 μM, 1 μM, and 10 μM of N-[2-(5-methoxy-indol-3-yl)-ethyl]-commenamide, N-[2-(5-methoxy-indol-3-yl)-ethyl]-coumalylamide, N-[2-(5-methoxy-indol-3-yl)-ethyl]-comanilamide, N-[2-(5-methoxy-indol-3-yl)-ethyl]-2-methoxy-commenamide or N-[2-(5-methoxy-indol-3-yl)-ethyl]-chelidonamide for 60 minutes. The binding reaction was terminated and washed with 4 ml ice-cold 50 mM Tris-HCl buffer by vacuum filtration. Membranes were then collected, and the filters containing the bound ligands were assayed for the amount of radioactivity in a b-counter. Non-specific binding was evaluated using a reaction with 10 μM metergoline (5-HT1A), 1 μM mianserin (5-HT2A and 5-HT2c) or 10 μM serotonin (5-HT1B, 5-HT2B, 5-HT4, 5-HT6 and 5-HT7).

Assay [3] concerns 3T3-L1 adipocytes. The experiment in a line: 2-[3H]-deoxy-d-glucose uptake in FFA-treated 3T3-L1 adipocyte model. It counts as cell-based. The conditions noted are these: Insulin 20 nM + FFA 300 μM (3 h) + substance 10 nM. How it is done: Adipocytes were glucose-starved for 1 h in Hepes-salt buffer containing 2% FFA-free BSA. FFA (free fatty acids) were then added to the cells at the indicated concentrations (300 μM) for the indicated times (3 h). 10 min before the end of the FFA treatment, the cells were stimulated with insulin (20 nM)/melatonin (10 nM)/test compounds (10 nM) at 37° C. 2-[^3H]-deoxy-d-glucose at 1 μCi/mL and 0.1 mM unlabeled 2-deoxyglucose in KRP-HEPES buffer was added and cells were incubated for 10 min at room temperature. Non-specific glucose uptake was measured by parallel incubations in the presence of 10 μM cytochalasin B, which blocks transporter-mediated glucose uptake, and was subtracted from total uptake in each assay. Cells were then washed three times with ice-cold phosphate buffered saline (PBS) and solubilized in 1M NaOH for 20 minutes. The sample was then counted using a scintillation counter. 2-[^3H]-deoxy-d-glucose uptake was assayed in triplicates for each condition in at least 3 independent experiments. 2-[^3H]-deoxy-d-glucose uptake (counts per minute-cpm) are presented as mean+SE of triplicates in a representative experiment or results of three independent experiments. ANOVA test was used with significance of P<0.05 (Table 7).

[4] abbreviates: 0.05 nM 125I-melatonin, 25° C., 4 hours, read-out: MT-2 receptor binding IC50.
The mark [5] stands for this setting: 0.05 nM 125I-melatonin, 25° C., 4 hours, read-out: MT-2 receptor binding KI.

For the molecule `COc1ccc2[nH]cc(CCNC(=O)c3cc(=O)cc(C(=O)O)o3)c2c1` [N-[2-5-methoxy-indol-3-yl)-ethyl]-chelidonamide], the IC50 was found to be 1760 nM in assay [1] (setting [4]) and 1030 nM in assay [2] (read-out: 5-HT1A IC50). Moreover, the Ki is 910 nM in assay [1] (setting [5]) and 580 nM in assay [2] (read-out: 5-HT1A KI). Also, in assay [1] (10 μM, 0.05 nM 125I-melatonin), the inhibition at 10 µM is 89%. In assay [2], the “affinity to 5-HT1A” value is recorded as “moderate affinity”. Moreover, the “2-[3H]-deoxy-d-glucose uptake (cpm)” value in assay [3] was 1407 cpm.

Consider `COc1ccc2[nH]cc(CCNC(=O)c3cc(=O)c(OC)co3)c2c1` [N-[2-(5-methoxy-indol-3-yl)-ethyl]-2-methoxy-commenamide], for which the IC50 in assay [1] (setting [4]) stood at 826 nM; in assay [2] (read-out: 5-HT1A IC50), 1930 nM. Besides, the results for the Ki in assay [1] (setting [5]) and in assay [2] (read-out: 5-HT1A KI) were 429 nM and 1100 nM, respectively. Moreover, the inhibition at 10 µM in assay [1] (10 μM, 0.05 nM 125I-melatonin) came out at 93%. Moreover, the “2-[3H]-deoxy-d-glucose uptake (cpm)” value in assay [3] was 1522 cpm.

For `COc1ccc2[nH]cc(CCNC(=O)c3cc(=O)cco3)c2c1` [N-[2-(5-methoxy-indol-3-yl)-ethyl]-comanilamide], the “affinity to MT-2” value in assay [1] is given as “high affinity”. Moreover, the results for the IC50 in assay [1] (setting [4]) and in assay [2] (read-out: 5-HT1A IC50) were 65 nM and 1950 nM, respectively. For the same molecule, the values for the Ki in assay [1] (setting [5]) and in assay [2] (read-out: 5-HT1A KI) were 34 nM and 1110 nM, respectively. The inhibition at 10 µM in assay [1] (10 μM, 0.05 nM 125I-melatonin) was 100%. In addition, the “2-[3H]-deoxy-d-glucose uptake (cpm)” value in assay [3] was determined as 1492 cpm.

For `COc1ccc2[nH]cc(CCNC(=O)c3cc(=O)c(O)co3)c2c1` [N-[2-(5-methoxy-indol-3-yl)-ethyl]-commenamide], in assay [1], the IC50 amounted to 13 nM, the affinity corresponds to a Ki of 7 nM, the “affinity to MT-2” value is listed as “high affinity” and the inhibition at 10 µM worked out at 101%. For the same molecule, in assay [2], the half-inhibitory concentration (IC50) was found to be 680 nM, the Ki was 390 nM and the “affinity to 5-HT1A” value is “moderate affinity”. For the same molecule, in assay [3], the “2-[3H]-deoxy-d-glucose uptake (cpm)” value is 1530 cpm.

Turning to `COc1ccc2[nH]cc(CCNC(=O)c3ccc(=O)oc3)c2c1` [N-[2-(5-methoxy-indol-3-yl)-ethyl]-coumalylamide], the IC50 came to 370 nM in assay [1] (setting [4]) and 1970 nM in assay [2] (read-out: 5-HT1A IC50). Moreover, the Ki was 190 nM in assay [1] (setting [5]) and 650 nM in assay [2] (read-out: 5-HT1A KI). The inhibition at 10 µM in assay [1] (10 μM, 0.05 nM 125I-melatonin) is 95%. Also, the “2-[3H]-deoxy-d-glucose uptake (cpm)” value in assay [3] is listed as 1494 cpm.

By IC50 is commonly meant the concentration at which inhibition is half-maximal. One may read the Ki as a dissociation constant, usually derived from enzyme kinetics or from competition with a known ligand. One may read the inhibition as the drop in the measured response relative to a control, in per cent.

For the origin of these results see patent US9101613B2, “Methods for treating neurological disease” (Neurim Pharmaceuticals (1991) Ltd., priority 2006, dated 2015).
